The values that follow come from patent publication US20250215029A1 (Recludix Pharma, Inc., priority 2022, published 2025).

In assay [1] the target is T1, Recombinant STAT6 protein (STAT6 (W123-T658)) (Homo sapiens, UniProt P42226).
T1 construct: Recombinant STAT6 protein (STAT6 (W123-T658))
T1 sequence (P42226 123-658): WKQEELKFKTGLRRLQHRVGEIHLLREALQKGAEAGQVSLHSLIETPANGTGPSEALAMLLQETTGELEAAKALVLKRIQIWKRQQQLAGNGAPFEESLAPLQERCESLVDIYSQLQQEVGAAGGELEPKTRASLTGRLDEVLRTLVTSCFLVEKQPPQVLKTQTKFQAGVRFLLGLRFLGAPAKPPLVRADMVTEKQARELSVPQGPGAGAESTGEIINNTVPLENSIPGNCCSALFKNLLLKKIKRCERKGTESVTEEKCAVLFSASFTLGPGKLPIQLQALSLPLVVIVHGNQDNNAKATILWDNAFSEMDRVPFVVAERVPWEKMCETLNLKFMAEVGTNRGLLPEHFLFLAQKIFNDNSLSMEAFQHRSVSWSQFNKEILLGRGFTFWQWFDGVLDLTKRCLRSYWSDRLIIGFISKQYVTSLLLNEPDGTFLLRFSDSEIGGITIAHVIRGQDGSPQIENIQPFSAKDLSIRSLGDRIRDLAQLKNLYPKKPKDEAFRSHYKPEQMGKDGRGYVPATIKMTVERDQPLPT
Kind of assay: STAT6 Fluorescence Polarization (FP) Assay. Type of assay: binding. The settings on record: STAT6 250 nM, probe 5-FAM-Ap[…]-NH2 2 nM, 45-minute incubation; read-out: STAT6 (FP assay IC50). The essentials: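 Competitive FP binding: recombinant STAT6 (W123-T658) at 250 nM, labeled phosphotyrosine peptide at 2 nM, compounds at 1% DMSO, 45 min at RT before reading. IC50 values were obtained from nonlinear regression of mP versus log concentration.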

Assay [2] concerns the target T2, Recombinant STAT3 protein (STAT3 (G127-I722)) (Homo sapiens, UniProt P40763).
T2 construct: Recombinant STAT3 protein (STAT3 (G127-I722))
Kind of assay: STAT3 Fluorescence Polarization (FP) Assay. Type of assay: binding. The settings on record: STAT3 25 nM, probe 5-FAM-GpYLPQTV-NH2 2 nM, 45-minute incubation; read-out: STAT3 (FP assay IC50). The essentials: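 Read-out is fluorescence polarization (mP) after 45 min at room temperature, with IC50 fitted by nonlinear regression against log compound concentration. Mixture: 25 nM STAT3 (G127-I722), 2 nM 5-FAM-GpYLPQTV-NH2 phosphopeptide, 10 mM HEPES pH 7.4 buffer, 1% DMSO.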

T2 sequence (P40763 127-722): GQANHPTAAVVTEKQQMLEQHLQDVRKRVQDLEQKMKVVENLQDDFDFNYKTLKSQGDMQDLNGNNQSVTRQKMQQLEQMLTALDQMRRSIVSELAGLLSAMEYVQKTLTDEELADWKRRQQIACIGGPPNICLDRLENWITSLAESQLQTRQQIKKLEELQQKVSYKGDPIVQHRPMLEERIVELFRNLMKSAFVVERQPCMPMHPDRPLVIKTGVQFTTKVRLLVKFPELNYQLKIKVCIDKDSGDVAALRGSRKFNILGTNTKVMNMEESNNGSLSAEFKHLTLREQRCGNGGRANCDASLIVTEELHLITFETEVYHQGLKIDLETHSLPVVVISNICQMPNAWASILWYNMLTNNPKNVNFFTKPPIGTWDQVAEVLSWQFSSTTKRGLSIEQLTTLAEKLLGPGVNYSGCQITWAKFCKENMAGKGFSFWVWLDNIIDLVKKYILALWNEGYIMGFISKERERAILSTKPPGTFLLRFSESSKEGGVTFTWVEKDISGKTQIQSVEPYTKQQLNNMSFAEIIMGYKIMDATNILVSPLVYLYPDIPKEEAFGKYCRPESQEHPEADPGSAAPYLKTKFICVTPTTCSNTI

`CN(C)S(=O)(=O)N1CCN(C(=O)[C@@H]2CC[C@@H]3CCCC[C@H](NC(=O)c4cc5cc(C(F)(F)P(=O)(O)O)ccc5s4)C(=O)N32)CC1` [Compound 87, ((2-(((3S,6S,10aS)-3-(4-(N,N-dimethylsulfamoyl)piperazine-1-carbonyl)-5-oxodecahydropyrrolo [1,2-a]azocin-6-yl)carbamoyl)benzo[b]thiophen-5-yl)difluoromethyl) phosphonic acid]: the concentration for half-maximal inhibition (IC50) was in the range of 300 to 3000 nM in assay [1] and 100 to 1000 nM in assay [2].

As for `O=C(NC1CCCC[C@H]2CC[C@@H](C(=O)N3CC(c4ccccc4)CC34CC4)N2C1=O)c1cc2cc(C(F)(F)P(=O)(O)O)ccc2s1` (stereo partly drawn) [Compound 89, (difluoro(2-(((3S,10aS)-5-oxo-3-(6-phenyl-4-azaspiro[2.4]heptane-4-carbonyl)decahydropyrrolo [1,2-a]azocin-6-yl)carbamoyl)benzo[b]thiophen-5-yl)methyl) phosphonic acid], the concentration for half-maximal inhibition (IC50) in assay [1] is at most 300 nM; in assay [2], 1000 to 10000 nM.

Turning to `O=C(N[C@H]1CCCC[C@H]2CC[C@@H](C(=O)N3CC(C(=O)N4CCOCC4)C3)N2C1=O)c1cc2cc(C(F)(F)P(=O)(O)O)ccc2s1` [Compound 93, (difluoro(2-(((3S,6S,10aS)-3-(3-(morpholine-4-carbonyl)azetidine-1-carbonyl)-5-oxodecahydropyrrolo [1,2-a]azocin-6-yl)carbamoyl)benzo[b]thiophen-5-yl)methyl) phosphonic acid], the results for the IC50 in assay [1] and in assay [2] were 3000 to 30000 nM and 100 to 1000 nM, respectively.

Take `O=C(N[C@H]1CCC[C@H]2CC[C@@H](C(=O)N3CC(C(=O)N4CCOCC4)C3)N2C1=O)c1cc2cc(C(F)(F)P(=O)(O)O)ccc2s1` [Compound 94, (difluoro(2-(((3S,6S,9aS)-3-(3-(morpholine-4-carbonyl)azetidine-1-carbonyl)-5-oxooctahydro-1H-pyrrolo[1,2-a]azepin-6-yl)carbamoyl)benzo[b]thiophen-5-yl)methyl) phosphonic acid]: the IC50 in assay [1] was in the range of 3000 to 30000 nM; in assay [2] it was 100 to 1000 nM.

With `O=C(N[C@H]1C=CC[C@H]2CC[C@@H](C(=O)Nc3ccc(-c4ccccc4)cc3)N2C1=O)c1cc2cc(C(F)(F)P(=O)(O)O)ccc2s1` [Compound 97, ((2-(((3S,6S,9aR)-3-([1,1′-biphenyl]-4-ylcarbamoyl)-5-oxo-2,3,5,6,9,9a-hexahydro-1H-pyrrolo[1,2-a]azepin-6-yl)carbamoyl)benzo[b]thiophen-5-yl)difluoromethyl) phosphonic acid], the figures for the IC50 in assay [1] and in assay [2] were 300 to 3000 nM and 100 to 1000 nM, respectively.

Regarding `O=C(N[C@H]1CCCC[C@H]2CC[C@@H](C(=O)NC(CO)Cc3ccccc3)N2C1=O)c1cc2cc(C(F)(F)P(=O)(O)O)ccc2s1` (stereo partly drawn) [Compound 98, (difluoro(2-(((3S,6S,10aS)-3-((1-hydroxy-3-phenylpropan-2-yl)carbamoyl)-5-oxodecahydropyrrolo [1,2-a]azocin-6-yl)carbamoyl)benzo[b]thiophen-5-yl)methyl) phosphonic acid], the IC50 in assay [1] was 3000 to 30000 nM; in assay [2], 100 to 1000 nM.

Consider `C[C@@H]1C[C@H](NC(=O)c2cc3cc(C(F)(F)P(=O)(O)O)ccc3s2)C(=O)N2[C@H](CC[C@H]2C(=O)N2CC[C@@H](c3ccccc3)C2)C[C@H]1O` [Compound 100, (difluoro(2-(((3S,6S,8R,9R, 10aR)-9-hydroxy-8-methyl-5-oxo-3-((S)-3-phenylpyrrolidine-1-carbonyl)decahydropyrrolo [1,2-a]azocin-6-yl)carbamoyl)benzo[b]thiophen-5-yl)methyl) phosphonic acid], for which the results for the IC50 in assay [1] and in assay [2] were at most 300 nM and 1000 to 10000 nM, respectively.

On to `CC1CCC[C@H](NC(=O)c2cc3cc(C(F)(F)P(=O)(O)O)ccc3s2)C(=O)N2[C@@H]1CC[C@H]2C(=O)N1CC(c2cccnc2)C1` (stereo partly drawn) [Compound 103, (difluoro(2-(((3S,6S,10aR)-10-methyl-5-oxo-3-(3-(pyridin-3-yl)azetidine-1-carbonyl)decahydropyrrolo [1,2-a]azocin-6-yl)carbamoyl)benzo[b]thiophen-5-yl)methyl) phosphonic acid], for which the IC50 in assay [1] is 3000 to 30000 nM; in assay [2] it was below 100 nM.
